Columns and labels:
[1] = background statement, in words; cited from earlier work
[2] = Human pharmacokinetic study: valdecoxib blood plasma concentration by HPLC; type: in vivo
Method: Subjects drank 180 ml water one, two and three hours postdose. […] Rapid onset is a highly desirable feature of many therapies for COX-2 mediated disorders, particularly those accompanied by acute pain. […] Each subject received each of three treatments, in randomized sequence, treatments being separated by 15 days. […] Following each treatment, subjects drank 180 ml water one, two and three hours after the treatment.

COX-1 = COX-1 (Homo sapiens, UniProt P23219); conditions: background statement, in words; cited from earlier work
Chain of COX-1 (P23219 24-599): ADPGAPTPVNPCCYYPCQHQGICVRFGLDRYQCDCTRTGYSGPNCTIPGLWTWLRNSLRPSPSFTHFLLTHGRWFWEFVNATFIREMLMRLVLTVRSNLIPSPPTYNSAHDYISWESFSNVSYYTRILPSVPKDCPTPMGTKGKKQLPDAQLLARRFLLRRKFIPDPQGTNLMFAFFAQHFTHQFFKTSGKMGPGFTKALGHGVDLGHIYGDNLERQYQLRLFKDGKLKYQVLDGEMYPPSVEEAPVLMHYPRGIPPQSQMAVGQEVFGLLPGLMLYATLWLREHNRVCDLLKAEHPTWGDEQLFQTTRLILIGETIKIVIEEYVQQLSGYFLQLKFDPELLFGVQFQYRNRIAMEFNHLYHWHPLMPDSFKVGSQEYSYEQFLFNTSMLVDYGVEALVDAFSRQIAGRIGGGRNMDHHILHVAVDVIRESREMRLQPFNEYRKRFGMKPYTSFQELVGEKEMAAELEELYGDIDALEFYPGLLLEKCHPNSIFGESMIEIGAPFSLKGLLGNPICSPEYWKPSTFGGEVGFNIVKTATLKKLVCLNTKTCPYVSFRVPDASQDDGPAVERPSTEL

| SMILES | water solubility [1] | Tmax ([2]; male, human, plasma, po, 20 mg) [h] | half-life ([2]; male, human, plasma, po, 20 mg) [h] | in vitro inhibitory activity against COX-1 (COX-1) | conversion of parecoxib to valdecoxib ([2]; administered orally to a human subject) |
| --- | --- | --- | --- | --- | --- |
| Cc1onc(-c2ccccc2)c1-c1ccc(S(N)(=O)=O)cc1 [valdecoxib] | substantially water-insoluble | 3.11 | 7.69 ± 2.45 | weak |  |
| CCC(=O)NS(=O)(=O)c1ccc(-c2c(-c3ccccc3)noc2C)cc1 [parecoxib] | high |  |  | weak | rapidly and completely converted to valdecoxib |

Reference: patent US20030100595A1, “Oral dosage form of a sulfonamide prodrug” (priority 2001, published 2003)
